These results are taken from ChEMBL document CHEMBL1275326, “Synthesis and identification of a new class of antileukemic agents containing 2-(arylcarboxamide)-(S)-6-amino-4,5,6,7-tetrahydrobenzo[d]thiazole” (Eur J Med Chem, 2010).

In data set [1] the test system is CCRF-CEM. As to the kind of experiment: Cytotoxicity against human CEM cells after 48 to 72 hrs by MTT assay. In kind it is functional, cell-based. (Formazan colour is commonly taken as a measure of viable cells.)
The test system of data set [2] is K562. As to the kind of experiment: Cytotoxicity against human K562 cells after 48 to 72 hrs by MTT assay. In kind it is functional, cell-based.
Data set [3] deals with K562. Description: Cytotoxicity against human K562 cells at 10 to 100 uM by MTT assay. The settings on record: TDE = time-dependent effect. Type of data set: functional, cell-based.
The nature of data set [4]: Cytotoxicity against human HEK293T cells at 1 to 5 uM after 48 to 72 hrs by MTT assay. Type of data set: cell-based. The settings on record: hek-293t.
Data set [5] deals with K562. Description: Cell cycle arrest in human K562 cells assessed as accumulation at G2/M phase at 10 uM after 48 hrs using propidium iodide staining by FACS analysis. In kind it is functional, cell-based. On the technique in general: A flow cytometer gives signals particle by particle.
Data set [6] relates to K562. Description: Cell cycle arrest in human K562 cells assessed as accumulation at G1 phase at 10 uM after 48 hrs using propidium iodide staining by FACS analysis. In kind it is functional, cell-based.
Data set [7] concerns K562. As to the kind of experiment: Cell cycle arrest in human K562 cells assessed as accumulation at S phase at 10 uM after 48 hrs using propidium iodide staining by FACS analysis. Type of data set: functional, cell-based.
The subject of data set [8] is K562. Description: Cytotoxicity against human K562 cells after 24 hrs by LDH release assay. In kind it is functional, cell-based. For orientation: LDH in the medium is a marker of cell lysis.
Data set [9] relates to CCRF-CEM. As to the kind of experiment: Cytotoxicity against human CEM cells at 10 to 100 uM by MTT assay. Type of data set: functional, cell-based. The note with it: TDE = time-dependent effect.
Data set [10] has as its system K562. As to the kind of experiment: Cytotoxicity against human K562 cells at 10 to 100 uM after 24 hrs by trypan blue exclusion assay. In kind it is functional, cell-based.
Data set [11] deals with K562. As to the kind of experiment: Cell cycle arrest in human K562 cells assessed as accumulation at G0/G1 phase at 10 uM after 48 hrs using propidium iodide staining by FACS analysis. Type of data set: functional, cell-based.

Active and inactive are the calls of the source. The calls are words filed in the database; no cut-off is given here.

In general, IC50 refers to the concentration needed to halve the response being measured. Low readings indicate greater potency in that assay, high ones weaker potency in that assay. Consider `N[C@H]1CCc2nc(NC(=O)c3ccc(Cl)cc3Cl)sc2C1`, for which the 50% inhibitory concentration (IC50) was found to be 8.72 µM with CCRF-CEM [1] and 7.72 µM in the data set with K562 [2].
Consider `N[C@H]1CCc2nc(NC(=O)c3c(F)cccc3F)sc2C1`, for which the IC50 with CCRF-CEM [1] was 81.2 µM; in the data set with K562 [2], more than 100 µM.
For `N[C@H]1CCc2nc(NC(=O)c3cc([N+](=O)[O-])cc([N+](=O)[O-])c3)sc2C1` the same measures were 9.02 µM and 8.16 µM.
For the compound `COc1cccc(C(=O)Nc2nc3c(s2)C[C@@H](N)CC3)c1`, the results for the IC50 in the data set with CCRF-CEM [1] and with K562 [2] were 13.8 µM and 17.9 µM, respectively.
On to `N[C@H]1CCc2nc(NC(=O)c3ccccc3)sc2C1`, for which the IC50 in the data set on CCRF-CEM [1] was 61.4 µM; in the data set on K562 [2], 65.7 µM.
For `N[C@H]1CCc2nc(NC(=O)c3cccc(Br)c3)sc2C1` the same measures were 22.8 µM and 21 µM.
Consider `N[C@H]1CCc2nc(NC(=O)c3ccccc3F)sc2C1`, for which the IC50 stood at 56.6 µM in the data set with CCRF-CEM [1] and 57.2 µM with K562 [2].
Take `CC(C)(C)c1ccc(C(=O)Nc2nc3c(s2)C[C@@H](N)CC3)cc1.Cl`: the Activity entry with CCRF-CEM [1] is “Dose-dependent effect”; with K562 [3], “tde”; in data set [4], “Non-toxic”; in the data set on K562 [8] it was “Dose-dependent effect”; with CCRF-CEM [9], “tde”; in the data set with K562 [2], “Dose-dependent effect”. Further, the IC50 with CCRF-CEM [1] and with K562 [2] was 4.52 µM in each case. Also, the outcome in the data set on K562 [5], with K562 [6], in the data set with K562 [7] and with K562 [11] was inactive. The result in the data set with K562 [10] was Active.
